pEC50: −log10 of the molar value.
Columns and labels:
[1] = tested on: HCV replicon cells (1b-Con1); test: Replicon activity assay (cell-based anti-HCV activity); settings: Hepatitis C virus, 72 h, three days post-dosing, replicon RNA level by real-time RT-PCR, read-out: EC50 (1b) Range
Description: (§1) To measure cell-based anti-HCV activity of the compounds of the present invention, replicon cells (1b-Con1) are seeded at 5000 cells/well in 96-well plates one day prior to treatment with a compound of the invention. Various concentrations of a test compound of the invention in DMSO are then added to the replicon cells, with the final concentration of DMSO at 0.5% and fetal bovine serum at 10% in the assay media. Cells are harvested three days post-dosing, and the replicon RNA level is determined using real-time RT-PCR (Taqman assay) with GAPDH RNA as endogenous control. EC50 values are calculated from experiments with 10 serial twofold dilutions of the inhibitor in triplicate. To measure cytotoxicity in replicon cells of an inhibitor, an MTS assay is performed according to the manufacturer's protocol for CellTiter 96 Aqueous One Solution Cell Proliferation Assay (Promega, Cat #G3580) three days post dosing on cells treated identically as in replicon activity assays. […] Cytotoxicity in other types of cells may be measured using the same MTS protocol.
(§2) Data were obtained using this method for selected compounds of the present invention, and are set forth below in Table 2.

[2] = Cytotoxicity assay in replicon cells (MTS); type: cell-based; settings: HCV replicon cells (1b-Con1), three days post dosing, head prints EDU, method MTS, read-out: CC50 (EDU) Range
Description: as §1, §2

Row | Compound | pEC50 [1] | CC50 at 3 days [2]
1 | C#C[C@]1(C)[C@@H]2O[P@](=O)(OCCC(=O)OC(C)C)OC[C@H]2O[C@H]1n1ccc(=O)[nH]c1=O [Compound 26B] | < 5.00 | > 50 µM
2 | CC(C)OC(=O)CCO[P@@]1(=O)OC[C@H]2O[C@@H](n3ccc(=O)[nH]c3=O)[C@](C)(N)[C@@H]2O1 [Compound 28A] | < 5.00 | > 50 µM
3 | CC(C)OC(=O)CCO[P@]1(=O)OC[C@H]2O[C@@H](n3ccc(=O)[nH]c3=O)[C@](C)(N)[C@@H]2O1 [Compound 28B] | < 5.00 | > 50 µM

Reference: patent US10899788B2, “Cyclic phosphate substituted nucleoside compounds and methods of use thereof for the treatment of viral diseases” (MERCK SHARP & DOHME CORP., priority 2016, dated 2021)
